Tests used:
Type in all cases: in vivo, C. elegans
nematodes = assay: single-nematode EPG recordings (ScreenChip System) and synthetic composite EPG summed from them
Procedure: (§1) To obtain nematodes of a consistent size that were compatible with the dimensions of the recording channel 120, we utilized a common procedure to obtain a large number of age synchronized eggs. Eggs were deposited in a culture plate containing food and cultivated at 20 C for 3 days, yielding a large population of young adult nematodes.
To prepare nematodes for recording, 2 mL of “normal M9 buffer solution,” defined in Table 3, was added to a culture plate containing young adult nematodes grown from synchronized eggs. The plate was swirled to lift nematodes into the solution and the contents were poured into a 2 mL Eppendorf tube. Nematodes were cleaned of adherent bacteria and debris by 5 cleaning cycles each of which involved pelleting nematodes in a centrifuge (1.2 g, 30 sec), drawing off the supernatant, and resuspending in M9 buffer. […]
According to circuit theory, (i) the waveform of a composite EPG recorded at electrodes 135 and 145 should be the sum of the voltage differences generated by each nematode at its unique location and orientation with respect to the electrodes and other nematodes, and (ii) the peak frequency of the waveform's power spectrum should represent the average pumping frequency of the population of nematodes between the electrodes. […]

[1] = test system: pool of multiple nematodes; assay: composite EPG from a pool of multiple nematodes, microfluidic device 100 / system 200; conditions: approximately 25 nematodes between electrodes, serotonin M9 buffer solution (10 mM serotonin); peak absent in normal M9 buffer; FIG. 4C
Procedure: as §1
To prepare nematodes for recording, 2 mL of “normal M9 buffer solution,” defined in Table 3, was added to a culture plate containing young adult nematodes grown from synchronized eggs. The plate was swirled to lift nematodes into the solution and the contents were poured into a 2 mL Eppendorf tube. Nematodes were cleaned of adherent bacteria and debris by 5 cleaning cycles each of which involved pelleting nematodes in a centrifuge (1.2 g, 30 sec), drawing off the supernatant, and resuspending in M9 buffer. To stimulate pharyngeal pumping, the final resuspension used “serotonin M9 buffer solution” which contained 10 mM serotonin in addition to the constituents in Table 3. […]
Two lines of evidence indicate that the recorded activity represents pharyngeal pumping.

[2] = test system: pool of multiple nematodes; assay: composite EPG from a pool of multiple nematodes, microfluidic device 500 / system 600, Solution A versus Solution B; conditions: same pool of nematodes; Solution A normal M9 buffer 16 min, Solution B serotonin M9 buffer 25 min; FIG. 7C
From the text: To obtain nematodes of a consistent size that were compatible with the dimensions of the recording channel 515, we used the method of Example 2. Alternative methods using filters can also be used to obtain an age/size synchronized population of nematodes for use. See US Patent Publ. No. 2019/0090458.
To prepare nematodes for recording, we used the method of Example 2, except that the final resuspension used “normal M9 buffer solution,” defined in Table 3.
For filling the microfluidic device, we used the method of Example 2, except that the syringe and tubing were filled with “normal M9 buffer solution.”
At the end of this recording, the normal M9 buffer solution was replaced with Solution B, serotonin M9 buffer solution disclosed in Example 1, without dislodging the original pool of nematodes. Replacement was accomplished by exchanging the syringe and tubing filled with normal M9 buffer solution for a syringe and tubing filled with serotonin M9 buffer solution. […]
The center frequency of this peak is within the expected range of pharyngeal pumping frequency. […] However, as the same population of nematodes was recorded under conditions of the two different buffer solutions in FIG. 7C, but not in FIG. 4C, FIG. 7C establishes, in addition, that the system 600 can be used to measure the effect of drugs or other test compounds on pharyngeal pumping. […]

SMILES: NCCc1c[nH]c2ccc(O)cc12 [serotonin]
- average pumping frequency (nematodes; 22 nematodes, single-nematode EPGs in serotonin M9 buffer solution (10 mM serotonin), 10-14 min, ± SEM): 4.9±0.13 Hz
- peak frequency of power spectrum of synthetic (in silico) composite EPG recording (nematodes; sum of all 22 single-nematode EPG measurements in serotonin M9 buffer solution (10 mM serotonin), FIG. 3E): 5.1 Hz
- peak of power spectrum of composite EPG [1]: 5.6 Hz
- center frequency of peak of difference trace between power spectra of Solution B and Solution A [2]: 5 Hz

— US11477967B2, “Microfluidic device, system and methods thereof for measuring and recording electrical signals from a pool of multiple nematodes” (NemaMetrix Inc., priority 2018, dated 2022)
